Structures can show the parent of a compound that is named as a salt. Where two headings read alike, the source gives them in different places.
Columns and labels:
[1] = target: T1, H3R (Homo sapiens, UniProt Q9Y5N1); assay: CRE-driven luciferase reporter gene assay, H3R antagonistic activity; format: cell-based; conditions: for % Antagonism 100 nM: 100 nM compound; for % Antagonism 100 nM / % Antagonism 1 μM: HEK-293 cells expressing human H3R, mean ± SD of three experiments; for % Antagonism 1 μM: 1 μM compound; for IC50: CRE luciferase assay, HEK-293 cells, Table 1
T1 construct: expressed in transfected cells
Protocol: cAMP-response element (CRE) reporter gene assay has been extensively used to evaluate the efficacy of GPCR antagonists or agonists. […] Initially, compounds and positive controls were tested at two concentrations (100 nM and 1 µM) to obtain the preliminary investigation of their H3R antagonistic activities. In the assays, the antagonistic activities was positively correlated with the rise of the fluorescence value and indicated by the % antagonism. For the prominent compounds IC50 values were determined at additional assays.
Human thalamus poly-A RNA (Clontech, Palo Alto, CA, USA) was used to clone the hH3R gene by RT-PCR. DNA PCR primers were designed in the light of the reported human histamine receptor gene sequences (GenBank accession no.AF140538). HEK-293 cells were cultured and transfected for the luciferase assay. The detailed procedures were described in the previous publication.
Stable HEK-293 cells, which had been co-transfected with H3R and pCRE-Luc, were seeded in a 96-well plate overnight, and were grown to 90–95% confluence[43]^,[44]. Then the cells were treated with various concentrations of tested compounds in serum-free DMEM and incubated for 20 min. Cells were then stimulated with 100 nM Histamine in serum-free DMEM containing 2 µM Forskolin and incubated for 4 h at 37 °C. Firefly luciferase assay kits (Ken-real, Shanghai, China) were used to determine the luciferase activity.

[2] = system: MES; conditions: cited from earlier work
[3] = system: intracellular cAMP; assay: Effect of compounds administrated alone on the level of intracellular cAMP; format: cell-based; conditions: for effect on the level of cAMP when treated alone: compound alone, ANOVA followed by Dunnett's test, Figure 2
Source text: It is well known that H3R is a GPCR coupled with Gαi. When the ligand (histamine) binds to H3R, the dissociated Gαi inhibits the activity of adenylate cyclase (AC) and down-regulates the level of intracellular cAMP. In this CREs driven luciferase assay, when cells were pre-treated by H3R antagonists, the downregulation of cAMP would be inhibited, and the level of intracellular cAMP would regain to the initial level.

[4] = system: MES-induced convulsions; assay: MES-induced convulsions model; format: in vivo; conditions: mice; for protection against MES-induced convulsions (reduction or abolition of THLE): 10 mg/kg, i.p., 30 min before stimulation, vs saline group
Source text: Protection for the mice was defined as the reduction or abolition of the tonic hind limb extension (THLE) in the MES model in mice.
Ear stimulation with alternating current (0.2 s, 60 Hz, 50 mA) was used to induce the seizures in mice. The reduction or abolition of the hind limb tonic extension (THLE) of mice was considered protective against the MES-induced seizures[29]^,[48]. […]

[5] = system: MES; conditions: cited from earlier work; remark: listed apart in the source
[6] = system: PTZ; conditions: cited from earlier work

T1 sequence (Q9Y5N1 whole entry): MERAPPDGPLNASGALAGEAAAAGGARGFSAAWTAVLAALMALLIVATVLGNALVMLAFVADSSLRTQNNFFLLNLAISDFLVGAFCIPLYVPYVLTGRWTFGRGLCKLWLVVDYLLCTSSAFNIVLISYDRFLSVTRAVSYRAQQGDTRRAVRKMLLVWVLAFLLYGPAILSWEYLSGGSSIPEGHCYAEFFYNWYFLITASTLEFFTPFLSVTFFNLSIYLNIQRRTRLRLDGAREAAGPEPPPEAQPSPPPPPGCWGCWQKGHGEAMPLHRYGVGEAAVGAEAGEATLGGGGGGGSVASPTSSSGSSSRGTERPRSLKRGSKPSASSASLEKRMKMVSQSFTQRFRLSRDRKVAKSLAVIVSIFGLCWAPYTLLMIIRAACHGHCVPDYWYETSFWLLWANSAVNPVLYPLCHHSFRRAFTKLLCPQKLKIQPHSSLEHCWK

Compound | % Antagonism 100 nM [1] | % Antagonism 1 μM [1] | melting point | protection against MES-induced convulsions (reduction or abolition of THLE) [4] | also measured
CCCCCCOc1ccc(-n2cnnc2)cc1 [III] | – | – | – | – | MES (mice) ([2]; 10 mg/kg i.p.): protection
CCN(CC)CCCOc1ccc(-n2cnnc2)cc1.Cl [Compound 3a, 3-(4-(4H-1,2,4-triazol-4-yl)phenoxy)-N,N-diethylpropan-1-amine hydrochloride] | 49.85 ± 9.73% | 223.76 ± 7.56% | 105 to 106 °C | moderate protection | effect on the level of cAMP when treated alone [3]: no significant effects; IC50 [1]: 2990 nM
c1cc(-n2cnnc2)ccc1OCCCCCN1CCCCC1 [Compound 3q, 1-(5-(4-(4H-1,2,4-triazol-4-yl)phenoxy)pentyl)piperidine] | 1.88 ± 12.38% | 2.39 ± 13.85% | – | – | –
NC(=O)C1CCN(CCCOc2ccc(-n3cnnc3)cc2)CC1 [Compound 3j, 1-(3-(4-(4H-1,2,4-triazol-4-yl)phenoxy)propyl)piperidine-4-carboxamide] | −4.2 ± 3.11% | 6.12 ± 2.05% | 196 to 198 °C | – | –
C[C@@H](N)Cc1cnc[nH]1 [RAMH, R-(α)-methyl-histamine, reference compound] | – | – | – | – | effect on duration of THLE, administered alone ([4]; 10 mg/kg i.p. alone, p > 0.05 vs saline): did not affect the duration of THLE
Cl.c1cc(-n2cnnc2)ccc1OCCN1CCCCC1 [Compound 3o, 1-(2-(4–(4H-1,2,4-triazol-4-yl)phenoxy)ethyl)piperidine hydrochloride] | 45.04 ± 3.61% | 94.20 ± 2.60% | 85 to 87 °C | moderate protection | IC50 [1]: 250 nM
CCC(C)(C)c1ccc(OCCCN2CCCCC2)cc1 [DL-77] | – | – | – | – | MES (rats) ([5]; 5, 10, 15 mg/kg): protection
NCCc1c[nH]cn1 [Histamine] | – | – | – | – | effect on the level of cAMP when treated alone [3]: no significant effects
O=C(c1ccc(OCCCc2cnc[nH]2)cc1)C1CC1 [CPX, ciproxifan, reference compound] | 33.96 ± 8.59% | 63.05 ± 9.33% | – | – | effect on the level of cAMP when treated alone [3]: no significant effects
CCCN(CCC)CCCOc1ccc(-n2cnnc2)cc1.Cl [Compound 3b, 3-(4-(4H-1,2,4-triazol-4-yl)phenoxy)-N,N-dipropylpropan-1-amine hydrochloride] | 13.24 ± 4.83% | 15.02 ± 4.03% | 180 to 183 °C | – | –
O=C1NC(c2ccccc2)(c2ccccc2)C(=O)N1CCCN1CCCCC1 [H3R ligand I] | – | – | – | – | MES (rats) ([5]; 1 mg/kg i.p.): protection; PTZ (rats) ([6]; 10 mg/kg i.p.): protection
Cl.c1cc(-n2cnnc2)ccc1OCCCN1CCOCC1 [Compound 3g, 4-(3-(4-(4H-1,2,4-triazol-4-yl)phenoxy)propyl)morpholine hydrochloride] | −0.76 ± 4.87% | 20.24 ± 7.56% | 237 to 239 °C | moderate protection | –
Cl.Cl.c1cc(-n2cnnc2)ccc1OCCCN1CCNCC1 [Compound 3d, 1-(3-(4-(4H-1,2,4-triazol-4-yl)phenoxy)propyl)piperazine dihydrochloride] | 11.33 ± 5.86% | 79.4 ± 4.50% | 146 to 148 °C | – | –
C=C[C@@]1(C)CC(=O)[C@]2(O)[C@@]3(C)[C@@H](O)CCC(C)(C)[C@@H]3[C@H](O)[C@H](OC(C)=O)[C@@]2(C)O1 [forskolin, reference compound] | – | – | – | – | rise of the cAMP level compared to the control group ([3]; forskolin 2 µM): more than 200 times
CN1CCN(CCCOc2ccc(-n3cnnc3)cc2)CC1.Cl [Compound 3e, 1-(3-(4-(4H-1,2,4-triazol-4-yl)phenoxy)propyl)-4-methylpiperazine hydrochloride] | 9.86 ± 0.87% | 21.78 ± 3.04% | 220 to 223 °C | – | –
NC(=NCc1ccc(Cl)cc1)SCCCc1cnc[nH]1 [Clobenpropit] | – | – | – | – | MES (mice) ([2]; 0.3, 1, 3 mg/kg i.p.): protection; PTZ (rats) ([6]; 10 μg & 20 μg icv): protection

Further lines, with some results ahead:

% Antagonism 100 nM [1] | % Antagonism 1 μM [1] | melting point | Compound | protection against MES-induced convulsions (reduction or abolition of THLE) [4] | also measured
5.19 ± 2.06% | 16.45 ± 1.90% | 124 to 126 °C | c1ccc(C2CCN(CCCOc3ccc(-n4cnnc4)cc3)CC2)cc1 [Compound 3i, 1-(3-(4-(4H-1,2,4-triazol-4-yl)phenoxy)propyl)-4-phenylpiperidine] | – | –
9.96 ± 10.9% | 24.41 ± 6.30% | 172 to 174 °C | c1ccc(N2CCN(CCCOc3ccc(-n4cnnc4)cc3)CC2)cc1 [Compound 3f, 1-(3-(4-(4H-1,2,4-triazol-4-yl)phenoxy)propyl)-4-phenylpiperazine] | – | –
148.62 ± 4.43% | 169.04 ± 15.04% | 88 to 90 °C | c1ccc(-c2nncn2-c2ccc(OCCCN3CCCCC3)cc2)cc1 [Compound 3l, 1-(3-(4-(3-phenyl-4H-1,2,4-triazol-4-yl)phenoxy)propyl)piperidine] | moderate protection | effect on the level of cAMP when treated alone [3]: no significant effects; IC50 [1]: 7.81 nM
1.03 ± 7.79% | 3.36 ± 1.27% | 66 to 68 °C | c1ccc(-c2ccc(-c3nncn3-c3ccc(OCCCN4CCCCC4)cc3)cc2)cc1 [Compound 3n, 1-(3-(4-(3-([1,1’-biphenyl]-4-yl)-4H-1,2,4-triazol-4-yl)phenoxy)propyl)piperidine] | – | –
10.56 ± 7.94% | 239.79 ± 3.17% | 249 to 252 °C | c1cc(-n2cnnc2)ccc1OCCCN1CCCCC1 [Compound 3h, 1–(3-(4-(4H-1,2,4-triazol-4-yl)phenoxy)propyl)piperidine] | moderate protection | effect on the level of cAMP when treated alone [3]: no significant effects; IC50 [1]: 127 nM
133.91 ± 8.91% | 183.54 ± 14.41% | 240 to 242 °C | Cc1nncn1-c1ccc(OCCCN2CCCCC2)cc1.Cl [Compound 3k, 1-(3-(4–(3-methyl-4H-1,2,4-triazol-4-yl)phenoxy)propyl)piperidine hydrochloride] | did not achieve a significant difference from the control group | effect on the level of cAMP when treated alone [3]: no significant effects; IC50 [1]: 21 nM
25.00 ± 3.95% | 90.52 ± 5.71% | 80 to 82 °C | Cl.c1cc(-n2cnnc2)ccc1OCCCCN1CCCCC1 [Compound 3p, 1-(4–(4-(4H-1,2,4-triazol-4-yl)phenoxy)butyl)piperidine hydrochloride] | did not achieve a significant difference from the control group | IC50 [1]: 3440 nM
32.23 ± 5.69% | 143.98 ± 16.16% | 120 to 122 °C | Cl.c1cc(-n2cnnc2)ccc1OCCCN1CCCC1 [Compound 3c, 4-(4-(3-(pyrrolidin-1-yl)propoxy)phenyl)-4H-1,2,4-triazole hydrochloride] | did not achieve a significant difference from the control group | effect on the level of cAMP when treated alone [3]: no significant effects; IC50 [1]: 553 nM
– | – | 70 to 74 °C | c1cc(-n2cnnc2)ccc1OCCCCCN1CCCCC1 (as salt: HCl) [Compound 3q, 1-(5-(4-(4H-1,2,4-triazol-4-yl)phenoxy)pentyl)piperidine] | – | –

— publication PMC7717691, “Design, synthesis, and anticonvulsant effects evaluation of nonimidazole histamine H3 receptor antagonists/inverse agonists containing triazole moiety” (Journal of Enzyme Inhibition and Medicinal Chemistry, 2020)
